# Experiments:
# Assay in all cases: drug sensitivity score (DSS) (DSS (unitless, 0-50 scale)); higher = more sensitive (stronger viability inhibition); extreme values may be limits of the assay
# Conditions in all cases: 72 h; culture: 2D
# Bowes = test system: Bowes
# In short: (§1)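 Drug sensitivity scores, modified area-under-curve measures, were derived from dose-response curves fitted in the in-house Breeze software. The curves came from melanoma cell lines and patient-derived melanoma cultures (1000–1500 cells per well) grown in 2D in 384-well plates holding a 527-compound oncology library. Each compound was dissolved in DMSO or water and tested at five concentrations across a 10,000-fold range. Viability was read by CellTiter-Glo luminescence after 72 h at 37 °C.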
# FM-MEL-2 = test system: FM-MEL-2
# In short: as §1
# FM-MEL-3 = test system: FM-MEL-3
# In short: as §1
# FM-MEL-6 = test system: FM-MEL-6
# In short: as §1
# SK-MEL-28 = test system: SK-MEL-28
# In short: as §1
# SK-MEL-2 = test system: SK-MEL-2
# In short: as §1
# WM165 = test system: WM165
# In short: as §1
# WM852 = test system: WM852
# In short: as §1
Structure (SMILES),drug sensitivity score (Bowes),drug sensitivity score (FM-MEL-2),drug sensitivity score (FM-MEL-3),drug sensitivity score (FM-MEL-6),drug sensitivity score (SK-MEL-28),drug sensitivity score (SK-MEL-2),drug sensitivity score (WM165),drug sensitivity score (WM852)
O=C(Nc1cnn2ccc(N3CCC[C@@H]3c3cc(F)ccc3F)nc12)N1CC[C@H](O)C1 [Larotrectinib],0,0,0,0,0,0,0,0
CCn1c(-c2nonc2N)nc2c(C#CC(C)(C)O)ncc(OC[C@H]3CCCNC3)c21,1,1,1.8,0,0,0,3.4,0
Clc1ccc(C(c2ccccc2Cl)C(Cl)Cl)cc1 (stereo not drawn) [Mitotane],1,0,0,0,0,0,0,0
Cc1ccc(=O)n(-c2ccccc2)c1 [Pirfenidone],0,0,0,0,0,0,0,0
CC(=O)Nc1ccc(C(=O)Nc2ccccc2N)cc1 [Tacedinaline],0,1.6,2.7,1.7,0,0,0,1.5
CCCCNc1ncc(C(=O)NCc2ccc(-n3ccnc3)cc2)c(NC2CCC(O)CC2)n1 (stereo not drawn) [UNC2881],0,2.2,0,0,0,0,0,0
Nc1cc(COc2c(Cl)cc(C[C@H](N)C(=O)O)cc2Cl)c2oc(-c3ccccc3)nc2c1 [JPH203],0,0,0,0.6,0,0,0,0
CC1=C2C[C@H]3[C@@H](CC[C@@H]4C[C@H](NS(C)(=O)=O)CC[C@@]43C)[C@@H]2CC[C@@]2(C1)O[C@@H]1C[C@H](C)CN[C@H]1[C@H]2C [Saridegib],0,0,0,0,0,0,0.5,0
NC(=O)Nc1cc(-c2cccc(F)c2)sc1C(=O)N[C@H]1CCCNC1 [AZD7762],7.7,0.2,6.1,6.5,2.2,4.2,4.7,8.4
CN(C)Cc1ccc(S(=O)(=O)n2ccc(/C=C/C(=O)NO)c2)cc1 [Resminostat],2.7,6.9,6.5,7.3,4.8,7.9,9.7,2.7
COCCOc1cnc2ccn([C@H](C)c3nnc4c(F)cc(-c5cnn(C)c5)cn34)c(=O)c2c1 [AMG-337],0,0,0,0,0,0,0,0
CC(C)Oc1ccc(-c2nn([C@@H](C)c3oc4ccc(F)cc4c(=O)c3-c3cccc(F)c3)c3ncnc(N)c23)cc1F [TGR-1202],0.9,0.9,0,0,0,0,0,1
C=CCN(/C=C1/C(=O)O[C@H](COC)[C@@]2(C)C1=C(O)C(=O)C1=C2[C@H](OC(C)=O)C[C@]2(C)C(=O)CC[C@@H]12)CC=C [Sonolisib],0,0,0,0,0,0,0,0
O=C(O)c1ccc(O)c2ncccc12 [IOX-1],0,0.4,0.8,0.9,0.8,0,4.3,0
Cn1ncnc1[C@H]1c2n[nH]c(=O)c3cc(F)cc(c23)N[C@@H]1c1ccc(F)cc1 [Talazoparib],0,0.4,2.3,2.3,0.1,0,11.7,0
NC[C@@](O)(c1ccc(Cl)cc1)c1ccc(-c2cn[nH]c2)cc1,0,1.4,0,4,1.7,0,2.1,0.6
CCc1cncnc1N1CCN(Cc2nc3ccc(C(F)(F)F)cc3[nH]2)CC1,2.1,0.5,1.7,0.7,0,0,0,3.3
N#CC1(c2ccc(NC(=O)c3cccnc3NCc3ccncc3)cc2)CCCC1 [Apatinib],0,0.1,0,0,0,0,0,0
COc1cc2ncnc(Nc3cccc(Cl)c3F)c2cc1OC(=O)N1CCN(C)C[C@H]1C [AZD3759],0,0,0,0,0,0,0,0
N[C@@H]1CCCN(c2c(/C=C3\SC(=O)NC3=O)cccc2-c2ccccc2)C1 [AZD1208],0,2.8,2,0.8,0.4,0,0,0
CCOC(=O)CCNc1cc(N2CCc3ccccc3CC2)nc(-c2ccccn2)n1 [GSK-J4],11.2,1,20.9,1.3,0,0,3.2,2.3
